{
  "source": "ChEMBL document CHEMBL4130457",
  "about": "“Discovery of AZD-2098 and AZD-1678, Two Potent and Bioavailable CCR4 Receptor Antagonists” (ACS Med Chem Lett, 2017)",
  "key": {"[1]": {"test": "Oral bioavailability in rat at 9 umol/kg", "assay_type": "ADME, organism-based", "details": "in vivo"}, "Rattus norvegicus [2]": {"test_system": "Rattus norvegicus", "test": "Antiinflammatory activity in OVA-induced Brown Norway rat lung assessed as reduction in alveolitis administered po bid 1 hr prior to antigen challenge and every 12 hrs prior to termination 96 hrs post challenge by histopathological analysis", "assay_type": "functional, organism-based"}, "[3]": {"test": "Lipophilicity, log P of the compound", "assay_type": "physicochemical", "details": "octanol/water"}, "[4]": {"target": "T1, C-C chemokine receptor type 4 (Homo sapiens, UniProt P51679)", "T1 sequence (P51679 whole entry)": "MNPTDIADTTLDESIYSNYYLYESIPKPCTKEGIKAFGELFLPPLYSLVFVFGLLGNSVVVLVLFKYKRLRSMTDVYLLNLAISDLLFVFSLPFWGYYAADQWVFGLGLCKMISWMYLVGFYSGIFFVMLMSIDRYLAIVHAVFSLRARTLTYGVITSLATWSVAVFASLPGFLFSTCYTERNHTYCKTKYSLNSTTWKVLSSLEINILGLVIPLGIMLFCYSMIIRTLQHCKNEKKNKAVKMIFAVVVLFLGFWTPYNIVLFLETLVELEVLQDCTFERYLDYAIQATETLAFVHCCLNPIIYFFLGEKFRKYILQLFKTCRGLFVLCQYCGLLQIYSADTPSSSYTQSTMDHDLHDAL", "test": "Antagonist activity at recombinant human CCR4 expressed in CHO-K1 cells assessed as inhibition of CCL22 induced Ca2+ mobilization after 2 hrs by FMAT based fluorescence assay", "assay_type": "functional, cell-based"}, "[5]": {"test": "Clearance in rat at 9 umol/kg, po or 3 umol/kg, iv", "assay_type": "ADME, organism-based", "details": "in vivo"}, "[6]": {"test": "Volume of distribution at steady state in rat at 9 umol/kg, po or 3 umol/kg, iv", "assay_type": "ADME, organism-based", "details": "in vivo, read-out: Vdss"}, "[7]": {"test": "Clearance in dog at 9 umol/kg, po or 3 umol/kg, iv", "assay_type": "ADME, organism-based, Canis lupus familiaris", "details": "in vivo"}, "Hepatocyte": {"test_system": "Hepatocyte", "test": "Stability in human hepatocytes assessed per million cells"}, "[8]": {"test": "Terminal trough concentration in OVA-induced Brown Norway rat plasma at 15 umol/kg, po bid measured 12 hrs post last dose", "assay_type": "ADME, organism-based", "details": "read-out: Cmin"}, "[9]": {"test": "Ratio of free plasma concentration in Brown Norway rat at 7.5 umol/kg to pIC50 for recombinant human CCR4 expressed in CHO-K1 cells", "assay_type": "ADME, cell-based", "details": "in vivo"}, "[10]": {"target": "T2, C-C chemokine receptor type 1 (Homo sapiens) (UniProt P32246)", "T2 sequence (whole entry)": "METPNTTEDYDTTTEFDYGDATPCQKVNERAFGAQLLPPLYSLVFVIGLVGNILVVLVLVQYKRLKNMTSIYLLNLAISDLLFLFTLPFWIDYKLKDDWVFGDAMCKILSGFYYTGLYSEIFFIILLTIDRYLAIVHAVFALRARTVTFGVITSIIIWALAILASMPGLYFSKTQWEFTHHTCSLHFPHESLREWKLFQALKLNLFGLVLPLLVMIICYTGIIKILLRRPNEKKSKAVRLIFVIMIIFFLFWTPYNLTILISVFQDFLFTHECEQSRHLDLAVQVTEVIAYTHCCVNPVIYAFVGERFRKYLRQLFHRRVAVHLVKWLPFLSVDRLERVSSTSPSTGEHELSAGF", "test": "Antagonist activity at CCR1 (unknown origin) at 10 uM", "assay_type": "functional"}, "Rattus norvegicus [11]": {"test_system": "Rattus norvegicus", "test": "Antiinflammatory activity in OVA-induced Brown Norway rat lung assessed as reduction in leukocyte trafficking in microvasculature administered po bid 1 hr prior to antigen challenge and every 12 hrs prior to termination 96 hrs post challenge by histopathological analysis", "assay_type": "functional, organism-based"}, "[12]": {"test": "Terminal trough concentration in OVA-induced Brown Norway rat plasma at 3 umol/kg, po bid measured 12 hrs post last dose", "assay_type": "ADME, organism-based", "details": "read-out: Cmin"}, "[13]": {"test": "Half life in rat at 9 umol/kg, po or 3 umol/kg, iv", "assay_type": "ADME, organism-based", "details": "in vivo"}, "[14]": {"target": "C-C chemokine receptor type 8 (Homo sapiens) (UniProt P51685)", "sequence (P51685 whole entry)": "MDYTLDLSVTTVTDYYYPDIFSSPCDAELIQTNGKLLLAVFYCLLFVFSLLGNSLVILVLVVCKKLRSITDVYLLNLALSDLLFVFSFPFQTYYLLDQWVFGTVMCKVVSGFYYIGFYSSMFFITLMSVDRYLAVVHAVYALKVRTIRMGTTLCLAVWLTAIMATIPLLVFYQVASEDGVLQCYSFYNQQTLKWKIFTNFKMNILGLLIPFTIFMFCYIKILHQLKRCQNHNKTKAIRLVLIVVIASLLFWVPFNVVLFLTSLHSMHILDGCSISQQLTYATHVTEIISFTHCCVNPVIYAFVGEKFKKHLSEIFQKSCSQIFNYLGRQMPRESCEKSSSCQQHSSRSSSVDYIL", "test": "Antagonist activity at CCR8 (unknown origin) at 10 uM", "assay_type": "functional"}, "[15]": {"test": "Antagonist activity at rat CCR4"}, "Rattus norvegicus [16]": {"test_system": "Rattus norvegicus", "test": "Terminal trough concentration in OVA-induced Brown Norway rat plasma at 0.22 to 2.2 umol/kg, po bid measured 12 hrs post last dose", "assay_type": "ADME, organism-based", "details": "in vivo, BLD = below limit of detection"}, "[17]": {"target": "C-C chemokine receptor type 5 (Homo sapiens) (UniProt P51681)", "sequence (P51681 whole entry, looked up)": "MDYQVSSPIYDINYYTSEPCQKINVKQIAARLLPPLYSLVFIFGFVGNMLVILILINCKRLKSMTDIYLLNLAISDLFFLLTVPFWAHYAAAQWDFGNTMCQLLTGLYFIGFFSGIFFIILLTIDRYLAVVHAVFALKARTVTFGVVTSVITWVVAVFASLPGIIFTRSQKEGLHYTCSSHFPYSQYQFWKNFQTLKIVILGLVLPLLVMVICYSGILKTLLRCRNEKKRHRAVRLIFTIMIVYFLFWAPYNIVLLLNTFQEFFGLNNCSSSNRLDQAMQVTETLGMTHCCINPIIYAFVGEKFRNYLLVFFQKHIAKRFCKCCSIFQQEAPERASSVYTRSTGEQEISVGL", "test": "Antagonist activity at CCR5 (unknown origin) at 10 uM", "assay_type": "functional"}, "[18]": {"target": "C-C chemokine receptor type 2 (Homo sapiens) (UniProt P41597)", "sequence (P41597 whole entry, looked up)": "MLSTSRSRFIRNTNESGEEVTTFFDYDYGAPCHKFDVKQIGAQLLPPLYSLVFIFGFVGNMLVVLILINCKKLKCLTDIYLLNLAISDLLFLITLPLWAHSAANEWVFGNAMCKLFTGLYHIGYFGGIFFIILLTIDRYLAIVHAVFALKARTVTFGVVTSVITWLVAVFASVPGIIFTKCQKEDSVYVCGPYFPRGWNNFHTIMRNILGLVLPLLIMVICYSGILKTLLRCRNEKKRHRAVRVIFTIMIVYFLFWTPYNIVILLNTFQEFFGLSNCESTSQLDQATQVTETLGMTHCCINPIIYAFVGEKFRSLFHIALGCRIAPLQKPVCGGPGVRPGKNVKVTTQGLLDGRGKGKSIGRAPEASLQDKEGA", "test": "Antagonist activity at CCR2b (unknown origin) at 10 uM"}, "[19]": {"test": "Oral bioavailability in dog at 9 umol/kg", "assay_type": "ADME, organism-based, Canis lupus familiaris", "details": "in vivo"}, "[20]": {"target": "T1, C-C chemokine receptor type 4", "test": "Antagonist activity at human CCR4 expressed in CHO cells coexpressing CD4+ assessed as inhibition of CCL22 induced Ca2+ mobilization", "assay_type": "functional, cell-based"}, "[21]": {"target": "T3, C-C chemokine receptor type 4 (Mus musculus, UniProt P51680)", "T3 sequence (P51680 whole entry)": "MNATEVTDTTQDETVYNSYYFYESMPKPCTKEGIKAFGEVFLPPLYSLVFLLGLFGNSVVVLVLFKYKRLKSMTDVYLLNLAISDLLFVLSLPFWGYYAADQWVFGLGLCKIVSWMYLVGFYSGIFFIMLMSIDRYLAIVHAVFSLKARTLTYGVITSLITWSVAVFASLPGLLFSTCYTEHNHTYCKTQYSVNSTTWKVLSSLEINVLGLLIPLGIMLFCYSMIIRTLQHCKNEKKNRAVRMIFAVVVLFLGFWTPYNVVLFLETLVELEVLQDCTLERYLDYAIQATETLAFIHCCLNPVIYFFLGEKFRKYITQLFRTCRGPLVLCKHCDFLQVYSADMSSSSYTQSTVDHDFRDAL", "test": "Antagonist activity at mouse CCR4", "assay_type": "functional"}, "[22]": {"test": "Solubility of the compound", "assay_type": "physicochemical"}, "[23]": {"target": "T4, C-X-C chemokine receptor type 2 (Homo sapiens) (UniProt P25025)", "T4 sequence (whole entry)": "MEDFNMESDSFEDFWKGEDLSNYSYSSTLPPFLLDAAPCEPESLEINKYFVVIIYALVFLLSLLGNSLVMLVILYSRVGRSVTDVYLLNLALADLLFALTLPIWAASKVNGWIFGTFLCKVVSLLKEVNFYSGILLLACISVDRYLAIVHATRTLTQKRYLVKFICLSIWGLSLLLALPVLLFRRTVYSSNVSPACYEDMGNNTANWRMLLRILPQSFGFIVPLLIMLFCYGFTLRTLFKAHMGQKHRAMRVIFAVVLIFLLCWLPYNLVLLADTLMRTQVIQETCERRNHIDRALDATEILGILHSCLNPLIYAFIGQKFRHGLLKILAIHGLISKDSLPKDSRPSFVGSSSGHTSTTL", "test": "Antagonist activity at CXCR2 (unknown origin) at 10 uM", "assay_type": "functional"}},
  "note": "Calls of active or inactive are those of the source. The calls are words filed in the database; no cut-off is given here.",
  "data": [
    {"smiles": "COc1nccnc1NS(=O)(=O)c1cccc(Cl)c1Cl", "values": [
      {"measurement": "bioavailability", "setting": "[1]", "result": 100, "unit": "%"},
      {"measurement": "Activity", "setting": "Rattus norvegicus [2]", "result": "Dose-dependent effect"},
      {"measurement": "logP", "setting": "[3]", "result": 2.5},
      {"measurement": "IC50", "setting": "[4]", "result": 15.8, "unit": "nM"},
      {"measurement": "clearance", "setting": "[5]", "result": 2, "unit": "mL/min/kg"},
      {"measurement": "Vd", "setting": "[6]", "result": 0.2, "unit": "L/kg"},
      {"measurement": "clearance", "setting": "[7]", "result": 1.5, "unit": "mL/min/kg"},
      {"measurement": "Stability", "setting": "Hepatocyte", "result": "< 0.2", "unit": "uL/ml"},
      {"measurement": "concentration at 12 h", "setting": "[8]", "result": 490, "unit": "nM"},
      {"measurement": "Ratio", "setting": "[9]", "result": 3},
      {"measurement": "Activity", "setting": "[10]", "result": "inactive"},
      {"measurement": "Activity", "setting": "Rattus norvegicus [11]", "result": "Dose-dependent effect"},
      {"measurement": "concentration at 12 h", "setting": "[12]", "result": 33, "unit": "nM"},
      {"measurement": "half-life", "setting": "[13]", "result": 1.7, "unit": "h"},
      {"measurement": "Activity", "setting": "[14]", "result": "inactive"},
      {"measurement": "pIC50", "setting": "[15]", "result": 8},
      {"measurement": "Cmin", "setting": "Rattus norvegicus [16]", "result": "Bld"},
      {"measurement": "Activity", "setting": "[17]", "result": "inactive"},
      {"measurement": "Activity", "setting": "[18]", "result": "inactive"},
      {"measurement": "bioavailability", "setting": "[19]", "result": 100, "unit": "%"},
      {"measurement": "IC50", "setting": "[20]", "result": 31.6, "unit": "nM"},
      {"measurement": "IC50", "setting": "[21]", "result": 10, "unit": "nM"},
      {"measurement": "solubility", "setting": "[22]", "result": 1500, "unit": "µg/mL"},
      {"measurement": "Activity", "setting": "[23]", "result": "inactive"}
    ]}
  ]
}
